Experimental data from ChEMBL document CHEMBL5233269, “Anticancer potential of spirocompounds in medicinal chemistry: A pentennial expedition” (Eur J Med Chem, 2021).
Values belong to the molecule of their own block, whether it stands above or below them.

Assays:
Jurkat = assay: Cytotoxicity against human Jurkat cells; assay type: functional, cell-based
HL-60 [1] = assay: Induction of mitochondrial membrane potential loss in human HL-60 cells measured after 72 hrs by TMRM dye based flow cytometric analysis; assay type: functional, cell-based; details: HL-60, 72 h
HL-60 [2] = assay: Induction of mitochondrial membrane potential loss in human HL-60 cells measured after 72 hrs by […] based flow cytometric analysis; assay type: functional, cell-based; details: HL-60, 72 h
CT26 = assay: Anticancer activity against mouse CT26 cells at 50 ug/ml measured after 24 hrs relative to control; assay type: functional; details: dose 50 µg/ml
NCI-H460 = assay: Growth inhibition of human NCI-H460 cells; assay type: functional, cell-based
[3] = Anticancer activity against human BJ cells assessed as reduction in cell proliferation; assay type: toxicity, cell-based
HeLa = assay: Anticancer activity against human HeLa cells assessed as reduction in cell proliferation; assay type: functional, cell-based
CCRF-CEM = assay: Anticancer activity against human CEM cells; assay type: functional, cell-based
MCF7 = assay: Anticancer activity against human MCF7 cells assessed as reduction in cell proliferation; assay type: functional, cell-based
A549 [4] = assay: Anticancer activity against human A549 cells assessed as reduction in cell proliferation; assay type: functional, cell-based
UO-31 = assay: Anticancer activity against human UO-31 cells assessed as reduction in cell proliferation; assay type: functional, cell-based
HOP-92 = assay: Anticancer activity against human HOP-92 cells assessed as reduction in cell proliferation; assay type: functional, cell-based
PC-3 = assay: Anticancer activity against human PC-3 cells assessed as reduction in cell proliferation; assay type: functional, cell-based
HaCaT = assay: Growth inhibition of human HaCaT cells; assay type: functional
[5] = Antiproliferative activity against human Panel (10 carcinoma cell lines) cells; assay type: functional, cell-based
HCT-116 = assay: Antiproliferative activity against human HCT-116 cells assessed as cell growth inhibition; assay type: functional, cell-based
Bel-7402 = assay: Antiproliferative activity against human Bel-7402 cells; assay type: functional, cell-based
MGC-803 = assay: Antiproliferative activity against human MGC-803 cells assessed as cell growth inhibition; assay type: functional, cell-based
A549 [6] = assay: Antiproliferative activity against human A549 cells assessed as cell growth inhibition; assay type: functional, cell-based
Androgen receptor [7] = biological target: T1, Androgen receptor (Homo sapiens, UniProt P10275); assay: Antagonist activity at androgen receptor (unknown origin)
T1 sequence (P10275 whole entry): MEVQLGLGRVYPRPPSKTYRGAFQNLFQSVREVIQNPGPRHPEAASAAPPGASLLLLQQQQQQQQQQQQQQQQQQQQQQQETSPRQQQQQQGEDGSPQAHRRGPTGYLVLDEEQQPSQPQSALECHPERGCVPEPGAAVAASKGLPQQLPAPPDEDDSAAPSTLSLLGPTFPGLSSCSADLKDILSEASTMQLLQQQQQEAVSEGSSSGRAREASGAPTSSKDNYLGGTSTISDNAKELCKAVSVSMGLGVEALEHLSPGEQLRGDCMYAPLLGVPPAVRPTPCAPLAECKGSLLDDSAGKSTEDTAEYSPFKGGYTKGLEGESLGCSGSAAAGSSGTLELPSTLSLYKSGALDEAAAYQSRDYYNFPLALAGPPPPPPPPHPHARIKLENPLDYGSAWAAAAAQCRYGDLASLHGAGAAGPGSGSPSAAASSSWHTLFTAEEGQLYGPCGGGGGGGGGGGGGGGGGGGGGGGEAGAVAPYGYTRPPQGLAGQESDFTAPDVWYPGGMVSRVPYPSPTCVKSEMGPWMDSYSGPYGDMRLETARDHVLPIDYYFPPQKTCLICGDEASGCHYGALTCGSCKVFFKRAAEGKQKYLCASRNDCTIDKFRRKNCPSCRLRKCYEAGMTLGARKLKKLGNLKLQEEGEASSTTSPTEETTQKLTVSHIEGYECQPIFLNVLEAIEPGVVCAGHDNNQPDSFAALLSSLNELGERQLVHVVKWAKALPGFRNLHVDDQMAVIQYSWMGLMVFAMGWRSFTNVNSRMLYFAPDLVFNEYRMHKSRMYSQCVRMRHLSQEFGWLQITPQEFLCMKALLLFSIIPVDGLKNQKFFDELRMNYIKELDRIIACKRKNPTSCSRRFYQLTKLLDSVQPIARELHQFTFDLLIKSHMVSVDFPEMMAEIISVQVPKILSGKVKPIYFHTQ

Androgen receptor [8] = biological target: T1, Androgen receptor; assay: Antagonist activity at androgen receptor (unknown origin) assessed as inhibition constant
MDA-MB-231 = assay: Antiproliferative activity against human MDA-MB-231 cells assessed as reduction in tumor cell proliferation; assay type: functional, cell-based
HepG2 = assay: Anticancer activity against human HepG2 cells at 50 ug/ml measured after 48 hrs relative to control; assay type: functional; details: dose 50 µg/ml

SMILES: O=C(/C=C1\CC(=O)N(c2ccc(Cl)cc2)C1=O)Nc1ccc(Cl)cc1
- IC50 (Jurkat): 33.5 µM

- IC50 (HL-60 [1]): 25.9 µM
- IC50 (HL-60 [2]): 32.2 µM
SMILES: O=C1CS/C(=C\C2c3ccccc3Nc3ccccc32)N1N(c1ccccc1)c1ccccc1

SMILES: CCOC(=O)[C@@H]1N[C@@](CC(=O)OC)(C(=O)OC)C2(C(=O)N(C(=O)OC(C)(C)C)c3ccccc32)[C@H]1c1ccc([N+](=O)[O-])cc1 (stereo partly drawn)
- Activity (CT26): 58.89%

- IC50 (NCI-H460): 120 nM
SMILES: COc1ccc(/C=N/N2C(=O)C(C#N)=CC23c2ccccc2NC2C=CC=CC23)cc1 (stereo not drawn)

- IC50 (HeLa): 35.7 µM
- IC50 (CCRF-CEM): 23.2 µM
- IC50 (MCF7): 19.9 µM
SMILES: CC1CO[C@@]2(O[C@H]3CC4C5CC[C@@H]6C[C@@H](O)CC[C@]6(C)C5CC(=O)[C@]4(C)[C@H]3[C@@H]2C)/C(=C/c2ccccc2)C1 (stereo partly drawn)
- IC50 [3]: 45.3 µM

- IC50 (A549 [4]): 3.59 µM
- IC50 (PC-3): 831 nM
SMILES: Cc1ccc(/C=C2\CN(C)C[C@]3(C2=O)[C@H](c2ccc(C)cc2)CN(C)[C@]32C(=O)N(CN3CCOCC3)c3ccccc32)cc1
- IC50 (UO-31): 1770 nM
- IC50 (HOP-92): 1400 nM

SMILES: N#CC1=CC2(c3ccccc3NC3C=CC=CC32)N(/N=C/c2ccccc2)C1=O (stereo not drawn)
- GI50 (HaCaT): 2000 nM

- IC50 (HCT-116): 4.88 µM
- IC50 (Bel-7402): 4.88 µM
- IC50 (MGC-803): 4.88 µM
- IC50 (A549 [6]): 4.88 µM
SMILES: O=C(C[C@@H](CC1CCCC1)C(=O)N1CC2(CC2)C[C@H]1C(=O)Nc1ccc(F)cn1)NO
- IC50 [5]: 2000 nM

SMILES: COC(=O)c1ccc(C2C(=S)N(c3ccc(C#N)c(C(F)(F)F)c3)C(=O)[C@]23CCOC3)cc1F (stereo partly drawn)
- IC50 (Androgen receptor [7]): 33 nM
- Ki (Androgen receptor [8]): 5.6 nM

- IC50 (MDA-MB-231): 44.6 µM
SMILES: O=C1N(C2CCCCC2)C(=O)C2(CC(c3ccccc3O)=NCCN2)N1C1CCCCC1 (stereo not drawn)

SMILES: CCCCN1C(=O)C2(c3cc(F)ccc31)[C@@H](C(=O)OCC)[C@H](C(=O)OCC)NC2(CC(=O)OC)C(=O)OC (stereo partly drawn)
- Activity (HepG2): 55.92%
